# Data as given in patent US12649745B2, “Amino-pyrimidine cyclo-amides” (Hoffmann-La Roche Inc., priority 2020, dated 2026).
# Biological target: T1, human Autotaxin (ATX) (Homo sapiens, UniProt Q13822)
# T1 construct: generate a full length human ENPP2 ORF with or without a 3′-6×His tag; 6xHis (C); made in house; host or cells: FreeStyle 293-F cells (transient transfection), purified from culture supernatant
# Assay: Human ATX enzyme inhibition assay (LPC substrate, choline oxidase/HRP/Amplex Red coupled format)
# Format: biochemical
# Details: recombinant hATX 1 nM, 18:1 LPC 30 μM, fluorescence at 90 mins minus 5 mins
# Procedure: Human ATX Enzyme Inhibition Assay
# To identify inhibitors of the human Autotaxin (ATX) enzyme an in-vitro biochemical profiling assay has been developed using lysophosphatidylcholine (LPC) as substrate and recombinant enzyme. ATX activity is assayed via a coupled enzyme format where choline produced from LPC hydrolysis is converted to hydrogen peroxide by choline oxidase (CO). Hydrogen peroxide is in turn used as a co-substrate by horseradish peroxidase (HRP) to oxidise Amplex Red® and generate the red-fluorescent product, Resorufin.
# 50 mM Tris-HCl (pH 8.0); 120 mM NaCl; 20 mM CaCl2; 5 mM KCl; 1 mM MgCl2; 0.01% Triton X-100, sterile-filtered and stored at 4° C.
# 50 mM Tris-HCl (pH 8.0); 150 mM NaCl
# human Autotaxin (hATX): 0.97 mg/ml (9.718 μM) Molecular weight 99817. Working solution of 1.5 μM used in this assay.
# 100 mM 18:1 LPC dissolved in reagent dilution-buffer.
# 500 U/ml Choline Oxidase in reagent dilution buffer.
# 2540 U/ml Horseradish Peroxidase, in reagent dilution buffer (10.95 mg/ml).
# 20 mM Amplex Red (10-Acetyl-3,7-dihydroxy-phenoxazin) in DMSO.
# Black, 384-well plate, black with clear bottom, non-treated surface.
# Test compounds are received pre-diluted in DMSO as an 11-point concentration-response (0.5 mM highest concentration; 1 in 3.162 dilution). Test compounds are pre-diluted 1:1 (10 μL compound+10 μL assay buffer) in a 96-well conical bottomed plate prior to use.
# ATX is diluted to 2.2 nM in assay buffer. Choline oxidase and horseradish peroxidase are diluted to 7.3 U/ml and 14.7 U/ml, respectively. 18:1 LPC and Amplex Red® are diluted to 110 μM and 183.3 μM, respectively (solution protected from light). 2.2 μL of compound pre-dilution or 50% DMSO is added to the reaction plate followed by 25 μL of ATX or assay buffer (negative control). Assay plate is mixed and incubated at room temperature for 10 mins. 15 μL of choline oxidase/horseradish peroxidase is then added. To initiate the reaction 15 μL of LPC 18:1/Amplex Red is added. Assay plate is mixed and incubated at room temperature in the dark. Fluorescence is measured at 5 mins (for background subtraction) and 90 mins.
# Final Assay Concentrations:
# Horse Radish Peroxidase: 4 U/ml
# Fluorescence at 5-minutes is subtracted from the 90-minute end point data and normalized with respect to the positive control. IC50 values are calculated.
# Results in the enzymatic ATX inhibition assay are provided for compounds of formula (I).
row,SMILES,IC50
1,"N#Cc1cc(Cl)cc2c1C[C@@H](Nc1ncc3c(n1)CN(C1CCOC1)C3=O)C2 (mixture of isomers) [Example 11, (S,S) and (S,R)-6-chloro-2-((5-oxo-6-(tetrahydrofuran-3-yl)-6,7-dihydro-5H-pyrrolo[3,4-d]pyrimidin-2-yl)amino)-2,3-dihydro-1H-indene-4-carbonitrile]",6 nM
2,"N#Cc1cc(Cl)cc2c1C[C@@H](Nc1ncc3c(n1)CCN(C1CCOC1)C3=O)C2 (mixture of isomers) [Example 32, (S,S) and (S,R)-6-chloro-2-((5-oxo-6-(tetrahydrofuran-3-yl)-5,6,7,8-tetrahydropyrido[4,3-d]pyrimidin-2-yl)amino)-2,3-dihydro-1H-indene-4-carbonitrile]",4 nM
3,"O=C1c2cnc(NC3Cc4ccc(Cl)cc4C3)nc2CN1C1COC1 (centres unmarked) [Example 1, 2-((5-chloro-2,3-dihydro-1H-inden-2-yl)amino)-6-(oxetan-3-yl)-6,7-dihydro-5H-pyrrolo[3,4-d]pyrimidin-5-one]",150 nM
4,"CC1(N2Cc3nc(NC4Cc5ccc(Cl)cc5C4)ncc3C2=O)COC1 (centres unmarked) [Example 2, 2-((5-chloro-2,3-dihydro-1H-inden-2-yl)amino)-6-(3-methyloxetan-3-yl)-6,7-dihydro-5H-pyrrolo[3,4-d]pyrimidin-5-one]",183 nM
5,"CC1(N2Cc3nc(N[C@H]4Cc5cc(Cl)cc(C#N)c5C4)ncc3C2=O)COC1 [Example 3, (S)-6-chloro-2-((6-(3-methyloxetan-3-yl)-5-oxo-6,7-dihydro-5H-pyrrolo[3,4-d]pyrimidin-2-yl)amino)-2,3-dihydro-1H-indene-4-carbonitrile]",5 nM
6,"O=C1c2cnc(NC3Cc4ccc(Cl)cc4C3)nc2CN1C1CC2(C1)CC(F)(F)C2 (centres unmarked) [Example 4, 2-((5-chloro-2,3-dihydro-1H-inden-2-yl)amino)-6-(6,6-difluorospiro[3.3]heptan-2-yl)-6,7-dihydro-5H-pyrrolo[3,4-d]pyrimidin-5-one]",42 nM
7,"O=C1c2cnc(NC3Cc4ccc(Cl)cc4C3)nc2CN1C1CC(F)(F)C1 (centres unmarked) [Example 5, 2-((5-chloro-2,3-dihydro-1H-inden-2-yl)amino)-6-(3,3-difluorocyclobutyl)-6,7-dihydro-5H-pyrrolo[3,4-d]pyrimidin-5-one]",49 nM
8,"CC1(N2Cc3nc(N[C@H]4Cc5cc(Cl)cc(C#N)c5C4)ncc3C2=O)CC(F)(F)C1 [Example 6, (S)-6-chloro-2-((6-(3,3-difluoro-1-methylcyclobutyl)-5-oxo-6,7-dihydro-5H-pyrrolo[3,4-d]pyrimidin-2-yl)amino)-2,3-dihydro-1H-indene-4-carbonitrile]",4 nM
9,"N#Cc1cc(Cl)cc2c1C[C@@H](Nc1ncc3c(n1)CN(C1CC4(C1)CC(F)(F)C4)C3=O)C2 [Example 7, (S)-6-chloro-2-((6-(6,6-difluorospiro[3.3]heptan-2-yl)-5-oxo-6,7-dihydro-5H-pyrrolo[3,4-d]pyrimidin-2-yl)amino)-2,3-dihydro-1H-indene-4-carbonitrile]",3 nM
10,"N#Cc1cc(Cl)cc2c1C[C@@H](Nc1ncc3c(n1)CN(C1CC(F)(F)C1)C3=O)C2 [Example 8, (S)-6-chloro-2-((6-(3,3-difluorocyclobutyl)-5-oxo-6,7-dihydro-5H-pyrrolo[3,4-d]pyrimidin-2-yl)amino)-2,3-dihydro-1H-indene-4-carbonitrile]",3 nM
11,"N#Cc1cc(Cl)cc2c1C[C@@H](Nc1ncc3c(n1)CN(C1CCOCC1)C3=O)C2 [Example 9, (S)-6-chloro-2-((5-oxo-6-(tetrahydro-2H-pyran-4-yl)-6,7-dihydro-5H-pyrrolo[3,4-d]pyrimidin-2-yl)amino)-2,3-dihydro-1H-indene-4-carbonitrile]",5 nM
12,"N#Cc1cc(Cl)cc2c1C[C@@H](Nc1ncc3c(n1)CN(CC(F)(F)F)C3=O)C2 [Example 10, (S)-6-chloro-2-((5-oxo-6-(2,2,2-trifluoroethyl)-6,7-dihydro-5H-pyrrolo[3,4-d]pyrimidin-2-yl)amino)-2,3-dihydro-1H-indene-4-carbonitrile]",2 nM
13,"CC(C)N1Cc2nc(N[C@H]3Cc4cc(Cl)cc(C#N)c4C3)ncc2C1=O [Example 12, (S)-6-chloro-2-((6-isopropyl-5-oxo-6,7-dihydro-5H-pyrrolo[3,4-d]pyrimidin-2-yl)amino)-2,3-dihydro-1H-indene-4-carbonitrile]",3 nM
14,"N#Cc1cc(Cl)cc2c1C[C@@H](Nc1ncc3c(n1)CN(C1CC1)C3=O)C2 [Example 13, (S)-6-chloro-2-((6-cyclopropyl-5-oxo-6,7-dihydro-5H-pyrrolo[3,4-d]pyrimidin-2-yl)amino)-2,3-dihydro-1H-indene-4-carbonitrile]",2 nM
15,"N#Cc1cc(Cl)cc2c1C[C@@H](Nc1ncc3c(n1)CN(CC1COC1)C3=O)C2 [Example 14, (S)-6-chloro-2-((6-(oxetan-3-ylmethyl)-5-oxo-6,7-dihydro-5H-pyrrolo[3,4-d]pyrimidin-2-yl)amino)-2,3-dihydro-1H-indene-4-carbonitrile]",3 nM
16,"CC1(N2Cc3nc(N[C@H]4Cc5cc(Cl)cc(C#N)c5C4)ncc3C2=O)CC1 [Example 15, (S)-6-chloro-2-((6-(1-methylcyclopropyl)-5-oxo-6,7-dihydro-5H-pyrrolo[3,4-d]pyrimidin-2-yl)amino)-2,3-dihydro-1H-indene-4-carbonitrile]",2 nM
17,"N#Cc1cc(Cl)cc2c1C[C@@H](Nc1ncc3c(n1)CN(C1COC1)C3=O)C2 [Example 16, (S)-6-chloro-2-((6-(oxetan-3-yl)-5-oxo-6,7-dihydro-5H-pyrrolo[3,4-d]pyrimidin-2-yl)amino)-2,3-dihydro-1H-indene-4-carbonitrile]",4 nM
18,"N#Cc1cc(Cl)cc2c1C[C@@H](Nc1ncc3c(n1)CCN(C1COC1)C3=O)C2 [Example 17, (S)-6-chloro-2-((6-(oxetan-3-yl)-5-oxo-5,6,7,8-tetrahydropyrido[4,3-d]pyrimidin-2-yl)amino)-2,3-dihydro-1H-indene-4-carbonitrile]",3 nM
19,"N#Cc1cc(Cl)cc2c1C[C@@H](Nc1ncc3c(n1)CN(CC1CC1)C3=O)C2 [Example 18, (S)-6-chloro-2-((6-(cyclopropylmethyl)-5-oxo-6,7-dihydro-5H-pyrrolo[3,4-d]pyrimidin-2-yl)amino)-2,3-dihydro-1H-indene-4-carbonitrile]",3 nM
20,N#Cc1cc(Cl)cc2c1C[C@@H](Nc1ncc3c(n1)CN([C@H]1C[C@H](O)C1)C3=O)C2 [Example 19],5 nM
21,"COCCN1Cc2nc(N[C@H]3Cc4cc(Cl)cc(C#N)c4C3)ncc2C1=O [Example 20, (S)-6-chloro-2-((6-(2-methoxyethyl)-5-oxo-6,7-dihydro-5H-pyrrolo[3,4-d]pyrimidin-2-yl)amino)-2,3-dihydro-1H-indene-4-carbonitrile]",5 nM
22,"CC(C)(O)CN1Cc2nc(N[C@H]3Cc4cc(Cl)cc(C#N)c4C3)ncc2C1=O [Example 21, (S)-6-chloro-2-((6-(2-hydroxy-2-methylpropyl)-5-oxo-6,7-dihydro-5H-pyrrolo[3,4-d]pyrimidin-2-yl)amino)-2,3-dihydro-1H-indene-4-carbonitrile]",5 nM
23,"N#Cc1cc(Cl)cc2c1C[C@@H](Nc1ncc3c(n1)CN(CCF)C3=O)C2 [Example 22, (S)-6-chloro-2-((6-(2-fluoroethyl)-5-oxo-6,7-dihydro-5H-pyrrolo[3,4-d]pyrimidin-2-yl)amino)-2,3-dihydro-1H-indene-4-carbonitrile]",2 nM
24,"CN1Cc2nc(N[C@H]3Cc4cc(Cl)cc(C#N)c4C3)ncc2C1=O [Example 23, (S)-6-chloro-2-((6-methyl-5-oxo-6,7-dihydro-5H-pyrrolo[3,4-d]pyrimidin-2-yl)amino)-2,3-dihydro-1H-indene-4-carbonitrile]",3 nM
25,"N#Cc1cc(Cl)cc2c1C[C@@H](Nc1ncc3c(n1)CN(CC1(O)CC1)C3=O)C2 [Example 24, (S)-6-chloro-2-((6-((1-hydroxycyclopropyl)methyl)-5-oxo-6,7-dihydro-5H-pyrrolo[3,4-d]pyrimidin-2-yl)amino)-2,3-dihydro-1H-indene-4-carbonitrile]",9 nM
26,"CC(=O)N1CCC(N2Cc3nc(N[C@H]4Cc5cc(Cl)cc(C#N)c5C4)ncc3C2=O)CC1 [Example 25, (S)-2-((6-(1-acetylpiperidin-4-yl)-5-oxo-6,7-dihydro-5H-pyrrolo[3,4-d]pyrimidin-2-yl)amino)-6-chloro-2,3-dihydro-1H-indene-4-carbonitrile]",6 nM
